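Tested at 5 concentrations; 48 h exposure; 96-well plates; endpoints linearly interpolated, else capped at highest concentration. At the GI50, growth is halved.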 Calls of active or inactive are those of the source. No stated cut-off is given here; in the data, active = GI50 up to about 1.1 µM and inactive = higher.
Columns and labels:
Experiment in all cases: NCI-60 cell line screen, 48 h
[1] = test system: HOP-62
[2] = test system: COLO 205
[3] = test system: CCRF-CEM
[4] = test system: SNB-75
[5] = test system: UO-31
[6] = test system: SF-539
[7] = test system: K562
[8] = test system: MDA-MB-435
[9] = test system: KM12
[10] = test system: M14
[11] = test system: U-251
[12] = test system: BT-549
[13] = test system: RXF 393
[14] = test system: T47D
[15] = test system: MOLT-4
[16] = test system: HCC 2998
[17] = test system: UACC-257
[18] = test system: NCI-H522
[19] = test system: LOX IMVI
[20] = test system: SNB-19
[21] = test system: SK-MEL-5
[22] = test system: HCT-116
[23] = test system: OVCAR-8
[24] = test system: ACHN
[25] = test system: OVCAR-3
[26] = test system: DU-145
[27] = test system: OVCAR-4
[28] = test system: SK-OV-3
[29] = test system: NCI-H460
[30] = test system: NCI-H23
[31] = test system: NCI-H226
[32] = test system: SW-620
[33] = test system: CAKI-1
[34] = test system: SN12C
[35] = test system: PC-3
[36] = test system: Malme-3M
[37] = test system: A498
[38] = test system: MCF7
[39] = test system: NCI/ADR-RES
[40] = test system: A549
[41] = test system: SF-268
[42] = test system: IGROV-1
[43] = test system: HT-29
[44] = test system: UACC-62
[45] = test system: SK-MEL-28
[46] = test system: SK-MEL-2
[47] = test system: HOP-92
[48] = test system: 786-0
[49] = test system: Hs-578T
[50] = test system: RPMI-8226
[51] = test system: HCT-15
[52] = test system: HL-60
[53] = test system: TK-10
[54] = test system: MDA-N
[55] = test system: SR
[56] = test system: OVCAR-5
[57] = test system: MDA-MB-231
[58] = test system: EKVX
[59] = test system: SF-295

SMILES: C=C(C)C1CC=C(C)C2(C1)OCC(C)(C)C(C)O2 (stereo not drawn)
- GI50 [1]: 16.6 µM (inactive)
- GI50 [2]: 18.1 µM (inactive)
- GI50 [3]: 24.7 µM (inactive)
- GI50 [4]: 22 µM (inactive)
- GI50 [5]: 20.3 µM (inactive)
- GI50 [6]: 22.2 µM (inactive)
- GI50 [7]: 18.5 µM (inactive)
- GI50 [8]: 21.3 µM (inactive)
- GI50 [9]: 16.9 µM (inactive)
- GI50 [10]: 22.2 µM (inactive)
- GI50 [11]: 16.7 µM (inactive)
- GI50 [12]: 17.3 µM (inactive)
- GI50 [13]: 13.7 µM (inactive)
- GI50 [14]: 18.4 µM (inactive)
- GI50 [15]: 20.1 µM (inactive)
- GI50 [16]: 28.3 µM (inactive)
- GI50 [17]: 21.1 µM (inactive)
- GI50 [18]: 17.7 µM (inactive)
- GI50 [19]: 17.5 µM (inactive)
- GI50 [20]: 18.3 µM (inactive)
- GI50 [21]: 15.2 µM (inactive)
- GI50 [22]: 16.3 µM (inactive)
- GI50 [23]: 16.5 µM (inactive)
- GI50 [24]: 18.3 µM (inactive)
- GI50 [25]: 16.1 µM (inactive)
- GI50 [26]: 31 µM (inactive)
- GI50 [27]: 17.1 µM (inactive)
- GI50 [28]: 23.4 µM (inactive)
- GI50 [29]: 26.1 µM (inactive)
- GI50 [30]: 20.7 µM (inactive)
- GI50 [31]: 18.3 µM (inactive)
- GI50 [32]: 19.1 µM (inactive)
- GI50 [33]: 16.3 µM (inactive)
- GI50 [34]: 18.2 µM (inactive)
- GI50 [35]: 30.1 µM (inactive)
- GI50 [36]: 14.5 µM (inactive)
- GI50 [37]: 14.6 µM (inactive)
- GI50 [38]: 17.1 µM (inactive)
- GI50 [39]: 17.9 µM (inactive)
- GI50 [40]: 17.3 µM (inactive)
- GI50 [41]: 19.8 µM (inactive)
- GI50 [42]: 22.9 µM (inactive)
- GI50 [43]: 15.5 µM (inactive)
- GI50 [44]: 15.8 µM (inactive)
- GI50 [45]: 24 µM (inactive)
- GI50 [46]: 17.8 µM (inactive)
- GI50 [47]: 11.2 µM (inactive)
- GI50 [48]: 17.6 µM (inactive)
- GI50 [49]: 27.9 µM (inactive)
- GI50 [50]: 17.9 µM (inactive)
- GI50 [51]: 16.4 µM
- GI50 [52]: 15 µM (inactive)
- GI50 [53]: 47.4 µM (inactive)
- GI50 [54]: 21 µM (inactive)
- GI50 [55]: 18.2 µM (inactive)
- GI50 [56]: 19.3 µM (inactive)
- GI50 [57]: 21.7 µM (inactive)
- GI50 [58]: 24.7 µM (inactive)
- GI50 [59]: 19.5 µM (inactive)

SMILES: CCCC(=O)OCC1OC(n2cc(F)c(=O)[nH]c2=O)CC1O (stereo not drawn)
- GI50 [1]: 0.0553 µM (active)
- GI50 [2]: 2.22 µM (inactive)
- GI50 [3]: 0.0356 µM (active)
- GI50 [4]: 0.0871 µM (active)
- GI50 [5]: 0.094 µM (active)
- GI50 [6]: 0.00432 µM (active)
- GI50 [7]: 1.87 µM (inactive)
- GI50 [8]: > 7.98 µM (inactive)
- GI50 [9]: > 10 µM (inactive)
- GI50 [10]: 0.314 µM (active)
- GI50 [11]: 1.79 µM (inactive)
- GI50 [12]: 0.929 µM (active)
- GI50 [13]: > 10 µM (inactive)
- GI50 [14]: 6.44 µM (inactive)
- GI50 [15]: > 8.55 µM (inactive)
- GI50 [16]: 0.00381 µM (active)
- GI50 [17]: 4.1 µM (inactive)
- GI50 [18]: 3.84 µM (inactive)
- GI50 [19]: 0.0303 µM (active)
- GI50 [20]: > 10 µM (inactive)
- GI50 [21]: 0.221 µM (active)
- GI50 [22]: 0.614 µM (active)
- GI50 [23]: 0.118 µM (active)
- GI50 [24]: 0.0395 µM (active)
- GI50 [25]: > 2.11 µM (inactive)
- GI50 [26]: 0.255 µM (active)
- GI50 [27]: > 10 µM (inactive)
- GI50 [28]: > 4.14 µM (inactive)
- GI50 [29]: 0.0221 µM (active)
- GI50 [30]: 0.127 µM (active)
- GI50 [31]: > 7.57 µM (inactive)
- GI50 [32]: > 10 µM (inactive)
- GI50 [33]: 0.0402 µM (active)
- GI50 [34]: 0.181 µM (active)
- GI50 [35]: 0.746 µM (active)
- GI50 [36]: > 5.06 µM (inactive)
- GI50 [37]: 0.489 µM (active)
- GI50 [38]: 0.00463 µM (active)
- GI50 [39]: 1.7 µM (inactive)
- GI50 [40]: 0.0489 µM (active)
- GI50 [41]: 0.0306 µM (active)
- GI50 [42]: > 8.09 µM (inactive)
- GI50 [43]: 0.721 µM (active)
- GI50 [44]: 0.126 µM (active)
- GI50 [45]: > 6.78 µM (inactive)
- GI50 [46]: > 9.64 µM (inactive)
- GI50 [47]: 1.1 µM (active)
- GI50 [48]: 0.337 µM (active)
- GI50 [49]: 3.85 µM (inactive)
- GI50 [50]: 0.429 µM (active)
- GI50 [51]: > 7.53 µM
- GI50 [52]: 0.614 µM (active)
- GI50 [53]: 1.26 µM (inactive)
- GI50 [54]: 1.45 µM (inactive)
- GI50 [55]: 0.0265 µM (active)
- GI50 [56]: > 8.11 µM (inactive)
- GI50 [57]: > 9.14 µM (inactive)
- GI50 [58]: > 10 µM (inactive)
- GI50 [59]: 0.0731 µM (active)
